Source: ChEMBL document CHEMBL3785000, “Antitubercular Lanostane Triterpenes from Cultures of the Basidiomycete Ganoderma sp. BCC 16642” (J Nat Prod, 2016)
Values after ≈ are worked out from the molar mass of the structure shown.

Assays:
[1] = tested on: Vero; test: Cytotoxicity against African green monkey Vero cells by green fluorescent protein microplate assay; assay type: cell-based; details: Chlorocebus sabaeus
[2] = tested on: Mycobacterium tuberculosis; test: Antitubercular activity against Mycobacterium tuberculosis H37Ra infected in African green monkey Vero cells measured daily for 8 days by green fluorescent protein microplate assay; assay type: functional; details: 192 h

For `CC(=O)O[C@H]1CC[C@]2(C)C3=C([C@H](O)C[C@H]2C1(C)C)[C@]1(C)CC[C@H]([C@H](C)CC/C=C(\C)C(=O)O)[C@@]1(C)CC3`, the IC50 [1] was 72 µM and the MIC [2] was 25 µg/mL (≈ 48.6 µM).

Work on `CC(=O)O[C@@H](C/C=C(\C)C(=O)O)[C@@H](C)[C@H]1CC[C@@]2(C)C3=C(CC[C@]12C)[C@@]1(C)CC[C@@H](OC(C)=O)C(C)(C)[C@@H]1CC3=O` yielded an IC50 [1] of 33 µM and an MIC [2] of over 50 µg/mL.

Work on `C/C(=C\CC[C@@H](C)[C@H]1C[C@H](O)[C@@]2(C)C3=CC[C@H]4C(C)(C)C(=O)CC[C@]4(C)C3=CC[C@]12C)C(=O)O` yielded an IC50 [1] of over 107 µM and an MIC [2] of 50 µg/mL (≈ 107 µM).

`CC(=O)O[C@@H](C/C=C(\C)C(=O)O)[C@@H](C)[C@H]1CC[C@@]2(C)C3=C(CC[C@]12C)[C@@]1(C)CCC(=O)C(C)(C)[C@@H]1C[C@H]3O` gave an IC50 [1] of over 95 µM and an MIC [2] of over 50 µg/mL.

`CC(=O)O[C@@H](C/C=C(\C)C(=O)O)[C@@H](C)[C@H]1C[C@H](OC(C)=O)[C@@]2(C)C3=C(CC[C@]12C)[C@@]1(C)CC[C@H](OC(C)=O)C(C)(C)[C@@H]1CC3` was tested, and the IC50 [1] was 15 µM and the MIC [2] was 3.13 µg/mL (≈ 5.09 µM).

For `NNC(=O)c1ccncc1` [ISONIAZID], the MIC [2] was 0.094 µg/mL (≈ 0.685 µM).

`CC(=O)O[C@@H](C/C=C(\C)C(=O)O)[C@@H](C)[C@H]1C[C@H](OC(C)=O)[C@@]2(C)C3=CC[C@H]4C(C)(C)[C@H](OC(C)=O)CC[C@]4(C)C3=CC[C@]12C` [GANODERIC ACID T] gave an IC50 [1] of 28 µM and an MIC [2] of 6.25 µg/mL (≈ 10.2 µM).

With `CO[C@@H]1C[C@H]2C(C)(C)[C@@H](OC(C)=O)CC[C@]2(C)C2=C1[C@]1(C)[C@@H](OC(C)=O)C[C@H]([C@H](C)[C@H](C/C=C(\C)C(=O)O)OC(C)=O)[C@@]1(C)CC2` the IC50 [1] was 26 µM and the MIC [2] was 12.5 µg/mL (≈ 19.4 µM).

Work on `Cc1c2ccncc2c(C)c2c1[nH]c1ccccc12` [ELLIPTECINE] yielded an IC50 [1] of 3.3 µM.

For `CO[C@@H]1C[C@H]2C(C)(C)[C@@H](OC(C)=O)CC[C@]2(C)C2=C1[C@]1(C)CC[C@H]([C@H](C)[C@H](C/C=C(\C)C(=O)O)OC(C)=O)[C@@]1(C)CC2`, the IC50 [1] was 28 µM and the MIC [2] was 25 µg/mL (≈ 42.6 µM).

Compound `CC(=O)O[C@@H](C/C=C(\C)C(=O)O)[C@@H](C)[C@H]1C[C@H](OC(C)=O)[C@@]2(C)C3=C(CC[C@]12C)[C@@]1(C)CCC(=O)C(C)(C)[C@@H]1C[C@H]3O` has an IC50 [1] of over 85 µM and an MIC [2] of over 50 µg/mL.

For `CC(=O)O[C@@H](C/C=C(\C)C(=O)O)[C@@H](C)[C@H]1C[C@H](OC(C)=O)[C@@]2(C)C3=C(CC[C@]12C)[C@@]1(C)CC[C@H](OC(C)=O)C(C)(C)[C@@H]1C[C@H]3O`, the IC50 [1] was 28 µM and the MIC [2] was 3.13 µg/mL (≈ 4.96 µM).

`CC(=O)O[C@@H](C/C=C(\C)C(=O)O)[C@@H](C)[C@H]1CC[C@@]2(C)C3=CC[C@H]4C(C)(C)[C@@H](OC(C)=O)CC[C@]4(C)C3=CC[C@]12C` showed an IC50 [1] of 32 µM and an MIC [2] of 12.5 µg/mL (≈ 22.5 µM).

For `CC(=O)O[C@@H](C/C=C(\C)C(=O)O)[C@@H](C)[C@H]1CC[C@@]2(C)C3=C(CC[C@]12C)[C@@]1(C)CCC(=O)C(C)(C)[C@@H]1CC3`, the IC50 [1] was 93 µM and the MIC [2] was over 50 µg/mL.

`CC(=O)O[C@@H](C/C=C(\C)C(=O)O)[C@@H](C)[C@H]1CC[C@@]2(C)C3=CC[C@H]4C(C)(C)C(=O)CC[C@]4(C)C3=CC[C@]12C` showed an IC50 [1] of 35 µM and an MIC [2] of over 50 µg/mL.

With `CC(=O)O[C@@H](C/C=C(\C)C(=O)O)[C@@H](C)[C@H]1C[C@H](OC(C)=O)[C@@]2(C)C3=C(CC[C@]12C)[C@@]1(C)CC[C@H](O)C(C)(C)[C@@H]1CC3` the IC50 [1] was 30 µM and the MIC [2] was 50 µg/mL (≈ 87.3 µM).

`CO[C@@H]1C[C@H]2C(C)(C)C(=O)CC[C@]2(C)C2=C1[C@]1(C)CC[C@H]([C@H](C)[C@H](C/C=C(\C)C(=O)O)OC(C)=O)[C@@]1(C)CC2` showed an IC50 [1] of 36 µM and an MIC [2] of 50 µg/mL (≈ 92.1 µM).

`CC(=O)O[C@@H](C/C=C(\C)C(=O)O)[C@@H](C)[C@H]1C[C@H](O)[C@@]2(C)C3=CC[C@H]4C(C)(C)C(=O)CC[C@]4(C)C3=CC[C@]12C` was tested, and the IC50 [1] was over 95 µM and the MIC [2] was over 50 µg/mL.

Work on `CC(=O)O[C@@H](C/C=C(\C)C(=O)O)[C@@H](C)[C@H]1C[C@H](OC(C)=O)[C@@]2(C)C3=C(CC[C@]12C)[C@@]1(C)CCC(=O)C(C)(C)[C@@H]1CC3` yielded an IC50 [1] of 86 µM and an MIC [2] of over 50 µg/mL.

`CC(=O)O[C@@H]1CC[C@]2(C)C3=CC[C@]4(C)[C@@H]([C@H](C)CC/C=C(\C)C(=O)O)CC[C@@]4(C)C3=CC[C@H]2C1(C)C` showed an IC50 [1] of 89 µM and an MIC [2] of over 50 µg/mL.

In the case of `CC(=O)O[C@H]1CC[C@]2(C)C3=C(CC[C@H]2C1(C)C)[C@]1(C)[C@@H](OC(C)=O)C[C@H]([C@H](C)CC/C=C(\C)C(=O)O)[C@@]1(C)CC3`, the IC50 [1] is reported as 22 µM and the MIC [2] is reported as 0.781 µg/mL (≈ 1.4 µM).

`CC(=O)O[C@H]1CC[C@]2(C)C3=C([C@H](O)C[C@H]2C1(C)C)[C@]1(C)[C@@H](OC(C)=O)C[C@H]([C@H](C)CC/C=C(\C)C(=O)O)[C@@]1(C)CC3` showed an IC50 [1] of 32 µM and an MIC [2] of 1.56 µg/mL (≈ 2.72 µM).

With `CC(=O)O[C@@H](C/C=C(\C)C(=O)O)[C@@H](C)[C@H]1CC[C@@]2(C)C3=C(CC[C@]12C)[C@@]1(C)CCC(=O)C(C)(C)[C@@H]1CC3=O` the IC50 [1] was 91 µM and the MIC [2] was 50 µg/mL (≈ 94.9 µM).

Work on `CC(=O)O[C@@H](C/C=C(\C)C(=O)O)[C@@H](C)[C@H]1CC[C@@]2(C)C3=CC[C@H]4C(C)(C)[C@H](O)CC[C@]4(C)C3=CC[C@]12C` yielded an IC50 [1] of over 98 µM and an MIC [2] of 50 µg/mL (≈ 97.5 µM).

In the case of `CO[C@@H]1C[C@H]2C(C)(C)[C@@H](OC(C)=O)CC[C@]2(C)C2=C1[C@]1(C)[C@@H](O)C[C@H]([C@H](C)CC/C=C(\C)C(=O)O)[C@@]1(C)CC2`, the IC50 [1] is reported as 32 µM and the MIC [2] is reported as 50 µg/mL (≈ 91.8 µM).

Work on `CC(=O)O[C@@H](C/C=C(\C)C(=O)O)[C@@H](C)[C@H]1C[C@H](OC(C)=O)[C@@]2(C)C3=CC[C@H]4C(C)(C)[C@@H](OC(C)=O)CC[C@]4(C)C3=CC[C@]12C` yielded an IC50 [1] of 16 µM and an MIC [2] of 0.781 µg/mL (≈ 1.27 µM).
